Measured values reported in PMC7508416 (Chemical research in toxicology, 2020).
Like-named read-outs stand apart in the source and are kept apart here. Marks after values point to notes of the source that are not given here.

Key:
[1] = cited from earlier work
[2] = human liver microsomes; cited from earlier work
[3] = polar bear liver microsomes; cited from earlier work
[4] = for Depletion rate, slope, first-order kinetics / Depletion rate, slope, zero-order kinetics: linear regression
[5] = 2 μM; herring gull liver microsomes; cited from earlier work
[6] = for % Depletion: after 60 min (Eq. 1)
[7] = cited from earlier work; remark: listed apart in the source

O=P(O)(Oc1ccccc1)Oc1ccccc1 [DPHP, diphenyl phosphate]
Geometric mean urinary concentration [1]: around 10 nM

O=P(Oc1ccccc1)(Oc1ccccc1)Oc1ccccc1 [TPHP, triphenyl phosphate, reference compound]
Percentage of DPHP formation following incubation [2]: 22% | Percentage of DPHP formation following incubation [3]: 97% | Depletion rate ([4]; 1 μM dose): 24 pmol/min/mg | Depletion rate, slope, first-order kinetics ([4]; 1 μM dose): −0.032 ^* ln[nmol]/min/mg protein | Depletion rate, slope, zero-order kinetics ([4]; 1 μM dose): −0.024 nmol/min/mg protein | Depletion rate, slope, first-order kinetics ([4]; 10 μM dose): −0.0030 ln[nmol]/min/mg protein | Depletion rate, slope, zero-order kinetics ([4]; 10 μM dose): −0.032 nmol/min/mg protein | Depletion rate [5]: 22 pmol/min/mg | Mass of parent lower in the +S9 treatment compared to the unprocessed spike ([6]; 1 μM): 69–77% | Percentage of Initial Parent Administration (Mean ± Std Dev): parent compound ([6]; 1 μM, Abiotic Control): 94 ± 7% | % Depletion ([6]; 1 μM, Abiotic Control): 6% | Percentage of Initial Parent Administration (Mean ± Std Dev): parent compound ([6]; 1 μM, Heat-inactivated s9): 88 ± 2% | % Depletion ([6]; 1 μM, Heat-inactivated s9): 12% | Percentage of Initial Parent Administration (Mean ± Std Dev): parent compound ([6]; 1 μM, s9): 31 ± 2% | Percentage of Initial Parent Administration (Mean ± Std Dev): parent compound ([6]; 1 μM, s9 & glucuronidase): 31 ± 3% | % Depletion ([6]; 1 μM, s9 & glucuronidase): 69% | Percentage of Initial Parent Administration (Mean ± Std Dev): parent compound ([6]; 1 μM, s9 & sulfatase): 23 ± 1% | % Depletion ([6]; 1 μM, s9 & sulfatase): 77% | % Depletion ([6]; 1 μM, s9): 69% | Percentage of Initial Parent Administration (Mean ± Std Dev): parent compound ([6]; 1 μM, unprocessed spike): 100 ± 5% | Percentage of Initial Parent Administration (Mean ± Std Dev): Total ([6]; 1 μM, unprocessed spike, parents plus quantified metabolites): 100 ± 5% | Mass of parent lower in the +S9 treatment compared to the unprocessed spike ([6]; 10 μM): 32–37% | Percentage of Initial Parent Administration (Mean ± Std Dev): parent compound ([6]; 10 μM, Abiotic Control): 95 ± 1% | % Depletion ([6]; 10 μM, Abiotic Control): 5% | Percentage of Initial Parent Administration (Mean ± Std Dev): parent compound ([6]; 10 μM, Heat-inactivated s9): 94 ± 1% | % Depletion ([6]; 10 μM, Heat-inactivated s9): 6% | Percentage of Initial Parent Administration (Mean ± Std Dev): parent compound ([6]; 10 μM, s9): 68 ± 1% | Percentage of Initial Parent Administration (Mean ± Std Dev): parent compound ([6]; 10 μM, s9 & glucuronidase): 67 ± 1% | % Depletion ([6]; 10 μM, s9 & glucuronidase): 33% | Percentage of Initial Parent Administration (Mean ± Std Dev): parent compound ([6]; 10 μM, s9 & sulfatase): 63 ± 0.2% | % Depletion ([6]; 10 μM, s9 & sulfatase): 37% | % Depletion ([6]; 10 μM, s9): 32% | Percentage of Initial Parent Administration (Mean ± Std Dev): parent compound ([6]; 10 μM, unprocessed spike): 100 ± 1% | Initial parent depleted in the abiotic control group ([6]; both doses): 5–6% | OH-TPHP glucuronide conjugates, share of the initial TPHP treatment [7]: 65%
